Laboratory results from patent publication US20240067693A1, “POLYPEPTIDES AND USES THEREOF” (MEDIMMUNE LIMITED, priority 2020, published 2024).
Numbered stars: 1 amine (or outer) side, 2 acyl side, 3 side chain; on linkers, the order of the positions; unused ones are H or OH. Bridge positions count the residues as written; N and C are the ends. Square brackets hold non-standard residues; d marks the D form. Side chains are listed from the residue outwards. Peptide text beside a SMILES is read from it. * marks the point of attachment. C18 diacid = O=C(O)CCCCCCCCCCCCCCCCC(=O)*; γGlu = O=C(O)[C@H](CCC(=O)[*:2])N[*:1]; αMeF = C[C@](N)(Cc1ccccc1)C(=O)O

Columns and labels:
[1] = target: T1, human calcitonin receptor (hCTR) (Homo sapiens, UniProt P30988); assay: cAMP production in 1321N1 cells with stable recombinant expression of human calcitonin receptor (hCTR); format: cell-based; details: cAMP, 1321N1 cells, assay buffer with 0.1% BSA; read-out: EC50 (pM) hCTR
T1 construct: expressed in transfected cells
T1 sequence (P30988 25-474): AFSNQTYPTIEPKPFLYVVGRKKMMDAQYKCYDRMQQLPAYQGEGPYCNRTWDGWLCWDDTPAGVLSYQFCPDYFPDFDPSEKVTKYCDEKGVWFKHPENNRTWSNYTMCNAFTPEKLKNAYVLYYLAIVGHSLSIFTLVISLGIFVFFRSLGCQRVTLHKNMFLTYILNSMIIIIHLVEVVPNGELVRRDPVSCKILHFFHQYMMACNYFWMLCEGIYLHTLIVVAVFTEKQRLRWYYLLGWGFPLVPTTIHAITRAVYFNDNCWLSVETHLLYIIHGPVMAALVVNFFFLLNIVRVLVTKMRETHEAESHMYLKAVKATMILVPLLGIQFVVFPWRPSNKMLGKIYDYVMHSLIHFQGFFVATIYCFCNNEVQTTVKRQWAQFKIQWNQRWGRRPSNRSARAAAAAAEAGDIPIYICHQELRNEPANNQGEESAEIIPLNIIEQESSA
In short: (§1)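 Thawed cells in HBSS/0.1% BSA/25 mM HEPES pH 7.4 with 0.5 mM IBMX were incubated with peptides 30 min at room temperature; cAMP read by HTRF. EC50 from 4-parameter fit of % activation relative to maximal amylin or calcitonin effect.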

[2] = Thioflavin T fibrillation assay; format: physicochemical; details: ThT fibrillation assay; peptide 1 mg/mL in 25 mM sodium acetate buffer pH 4.0; 6 days at 37 °C with shaking; >144 h = no increase
Excerpt: Peptide aggregation that form fibrils is an indication of physical instability. Fibril formation in solution poses a significant risk for the stability of injectable peptide drug products. Thioflavin T (ThT) fibrillation assay is a useful tool to assess the aggregation kinetics of a peptide or protein under accelerated and stressed conditions that can be used to forecast the long-term viability of a compound in solution. ThT can selectively bind amyloid fibrils and the resultant complex emits strong fluorescence signal at 482 nm when excited at 450 nm (Anal Biochem. 1989 Mar;177(2):244-9). Monitoring of the change in fluorescence signal is an established method to study the fibril forming potential of peptides and proteins. ThT (purchased from Sigma Aldrich) stock solution is prepared by dissolving the ThT powder in Milli-Q water and filtered to obtain a 0.25 mM solution. The concentration of the solution is measured at 412 nm using an extinction coefficient of 36 mM^−1cm^−1. Test peptides were dissolved at 1 mg/mL in 25 mM sodium acetate buffer pH 4.0. 100 μL aliquot of peptide solution and 5 μL aliquot of ThT solution were placed in a clear bottom black fluorescence 96-well plate. 5 replicates of each test samples were placed in zo the same row of the plate. Buffer was placed in control wells for baseline correction. All empty wells were filled with water to prevent evaporation. The plate was sealed with aluminium seal and placed in fluorescence plate reader and incubated for 6 days at 37 ° C. with intermittent orbital shaking at 500 to 750 rpm. The fluorescence intensity was measured every 30 min using excitation at 444 nm and emission at 480 nm. The fibril forming potential of the test peptides was determined by measuring the average time taken to detect an increase in baseline corrected fluorescence intensity.

[3] = target: T2, human amylin receptor (calcitonin receptor co-expressed with receptor activity modifying protein, RAMP3) (hAMYR3) (Homo sapiens, UniProt O60896+P30988); assay: cAMP production in 1321N1 cells with stable recombinant expression of human amylin receptor (hAMYR3); format: cell-based; details: for Ratio (selectivity hAMYR vs hCTR, ratio of EC50 values at the two receptors): EC50 hCTR / EC50 hAMYR3; for EC50: cAMP, 1321N1 cells, assay buffer with 0.1% BSA, read-out: EC50 (pM) hAMYR3
T2 construct: expressed in transfected cells
T2 sequence (P30988 25-474): T1 sequence (P30988 25-474)
T2 sequence (O60896 24-148 partner): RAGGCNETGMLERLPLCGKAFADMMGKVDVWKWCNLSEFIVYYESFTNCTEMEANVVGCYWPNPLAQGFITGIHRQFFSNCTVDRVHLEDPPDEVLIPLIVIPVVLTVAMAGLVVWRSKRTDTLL
In short: as §1

| EC50 [1] | Time taken to detect increase in fluorescence intensity [2] | Ratio (selectivity hAMYR vs hCTR, ratio of EC50 values at the two receptors) [3] | EC50 [3] | SMILES |
| --- | --- | --- | --- | --- |
| 3640 pM | >144 h | 21 | 177 pM | CC[C@H](C)[C@H](NC(=O)[C@@H]1CCCN1C(=O)CNC(=O)[C@](C)(Cc1ccccc1)NC(=O)[C@H](CC(N)=O)NC(=O)[C@H](CC(N)=O)NC(=O)[C@H](CO)NC(=O)[C@H](CO)NC(=O)[C@H](Cc1c[nH]cn1)NC(=O)[C@H](CCCNC(=N)N)NC(=O)[C@H](CC(C)C)NC(=O)[C@H](Cc1ccccc1)NC(=O)[C@H](CCC(=O)O)NC(=O)[C@H](C)NC(=O)[C@H](CC(C)C)NC(=O)[C@H](CCCNC(=N)N)NC(=O)[C@H](CCC(N)=O)NC(=O)[C@@H](NC(=O)[C@H](C)NC(=O)[C@@H]1CSSC[C@H](NC(=O)[C@@H](N)CCCCNC(=O)CC[C@H](NC(=O)CC[C@H](NC(=O)CCCCCCCCCCCCCCCCC(=O)O)C(=O)O)C(=O)O)C(=O)N[C@@H](CC(N)=O)C(=O)N[C@@H]([C@@H](C)O)C(=O)N[C@@H](C)C(=O)N[C@@H]([C@@H](C)O)C(=O)N1)[C@@H](C)O)C(=O)N[C@@H](CC(C)C)C(=O)N1CCC[C@H]1C(=O)N1CCC[C@H]1C(=O)N[C@H](C(=O)N[C@@H](CC(N)=O)C(=O)N[C@H](C(=O)NCC(=O)N[C@@H](CO)C(=O)N[C@@H](CC(N)=O)C(=O)N[C@H](C(=O)N[C@@H](Cc1ccc(O)cc1)C(N)=O)[C@@H](C)O)C(C)C)[C@@H](C)O [Peptide 11, K(γE-γE-C18diacid)[CNTATC]ATQRLAEFLRHSSNN(αMePhe)GPILPPTNVGSNTY-amide] (H-K([γGlu-γGlu-C18 diacid])CNTATCATQRLAEFLRHSSNN[αMeF]GPILPPTNVGSNTY-NH2; disulfide 2-7) |
| 2040 pM | 25 h | 10 | 196 pM | CC[C@H](C)[C@H](NC(=O)[C@@H]1CCCN1C(=O)CNC(=O)[C@](C)(Cc1ccccc1)NC(=O)[C@H](CC(N)=O)NC(=O)[C@H](CC(N)=O)NC(=O)[C@H](CO)NC(=O)[C@H](CO)NC(=O)[C@H](Cc1c[nH]cn1)NC(=O)[C@@H](NC(=O)[C@H](CC(C)C)NC(=O)[C@H](Cc1ccccc1)NC(=O)[C@H](CC(N)=O)NC(=O)[C@H](C)NC(=O)[C@H](CC(C)C)NC(=O)[C@H](CCCNC(=N)N)NC(=O)[C@H](CCC(N)=O)NC(=O)[C@@H](NC(=O)[C@H](C)NC(=O)[C@@H]1CSSC[C@H](NC(=O)[C@@H](N)CCCCNC(=O)CC[C@H](NC(=O)CC[C@H](NC(=O)CCCCCCCCCCCCCCCCC(=O)O)C(=O)O)C(=O)O)C(=O)N[C@@H](CC(N)=O)C(=O)N[C@@H]([C@@H](C)O)C(=O)N[C@@H](C)C(=O)N[C@@H]([C@@H](C)O)C(=O)N1)[C@@H](C)O)C(C)C)C(=O)N[C@@H](CC(C)C)C(=O)N1CCC[C@H]1C(=O)N1CCC[C@H]1C(=O)N[C@H](C(=O)N[C@@H](CC(N)=O)C(=O)N[C@H](C(=O)NCC(=O)N[C@@H](CO)C(=O)N[C@@H](CC(N)=O)C(=O)N[C@H](C(=O)N[C@@H](Cc1ccc(O)cc1)C(N)=O)[C@@H](C)O)C(C)C)[C@@H](C)O [Peptide 13, K(γE-γE-C18diacid)[CNTATC]ATQRLANFLVHSSNN(αMePhe)GPILPPTNVGSNTY-amide] (H-K([γGlu-γGlu-C18 diacid])CNTATCATQRLANFLVHSSNN[αMeF]GPILPPTNVGSNTY-NH2; disulfide 2-7; N-terminus assumed) |
